Measured values from patent US20070031511A1, “Method of treatment” (priority 2003, published 2007).

Test system: Ggly receptor
Assay: [125I]-Ggly binding to the Ggly receptor on IMGE-5 cells
Parameters: species or system mice
Experimental: [^125I]-Ggly binding assays were carried out by previously described methods (Yang et al, 2001). Briefly, 5×10^5 IMGE-5 cells/well were seeded in 6-well plates and grown at 33° C. for 24 hours. The cells were then serum starved and shifted to 39° C. for 24 h. […] Cells were then washed three times in ice-cold PBS and lysed with 1 M NaOH, and the amount of radioactivity bound was measured in a γ-counter.

## [Bi+3] [bismuth ions]
2 moles Bi3+/mole Ggly
  Inhibition of [125I]-Ggly binding: 50%
8 or 32 moles Bi3+/mole Ggly
  Inhibition of [125I]-Ggly binding: complete inhibition
